Results reported in ChEMBL document CHEMBL1201862, “PubChem BioAssay data set” (2004).
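Grown in 96-well plates, cells were treated for 48 hours with each compound at five concentrations. Insufficient inhibition: endpoint recorded as highest concentration tested. GI50 = concentration required for 50% inhibition of growth.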 The source made the active and inactive calls. Cut-off read from the data, not from the text of the source: active = GI50 up to about 1.1 µM and inactive = higher. Where a SMILES comes first, the peptide text is derived from it.

Assays:
Assay in all cases: DTP human tumour cell line panel, 48 h
786-0 = test system: 786-0
A498 = test system: A498
A549 = test system: A549
CCRF-CEM = test system: CCRF-CEM
DU-145 = test system: DU-145
HOP-92 = test system: HOP-92
MDA-MB-435 = test system: MDA-MB-435
MDA-N = test system: MDA-N
MOLT-4 = test system: MOLT-4
Malme-3M = test system: Malme-3M
NCI-H460 = test system: NCI-H460
PC-3 = test system: PC-3
SF-295 = test system: SF-295
SF-539 = test system: SF-539
SNB-75 = test system: SNB-75
SW-620 = test system: SW-620
U-251 = test system: U-251
UO-31 = test system: UO-31
HCC 2998 = test system: HCC 2998

Measured: GI50

Cc1c(NC(=O)Nc2c(Cl)cccc2Cl)c(=O)n(-c2ccccc2)n1C
inactive: 786-0 > 100 µM | A498 > 100 µM | A549 > 100 µM | CCRF-CEM 46.7 µM | DU-145 > 100 µM | HOP-92 > 100 µM | MDA-MB-435 > 100 µM | MDA-N > 100 µM | MOLT-4 > 100 µM | Malme-3M > 100 µM | NCI-H460 > 100 µM | PC-3 > 100 µM | SF-295 > 100 µM | SF-539 > 100 µM | SNB-75 > 100 µM | SW-620 > 100 µM | U-251 > 100 µM | UO-31 > 100 µM

O=C1NC(=O)C(c2c[nH]c3ccccc23)=C1c1cnc[nH]1
inactive: 786-0 > 100 µM | A498 > 100 µM | A549 > 100 µM | CCRF-CEM 47.3 µM | DU-145 > 100 µM | HOP-92 > 100 µM | MDA-MB-435 75.3 µM | MDA-N 74.3 µM | MOLT-4 8.47 µM | Malme-3M > 100 µM | NCI-H460 55.3 µM | PC-3 > 100 µM | SF-295 > 100 µM | SF-539 32.9 µM | SNB-75 > 100 µM | SW-620 57.3 µM | U-251 > 100 µM | UO-31 70.6 µM

Cc1cn2c(/C=N/NC(=N)N)c(-c3ccc(Cl)c([N+](=O)[O-])c3)nc2s1
inactive: A549 1.61 µM | DU-145 1.79 µM | HOP-92 1.46 µM | Malme-3M 1.83 µM | NCI-H460 1.42 µM | PC-3 1.58 µM | SF-295 1.3 µM | SF-539 1.73 µM | SNB-75 1.27 µM | UO-31 1.88 µM
active: 786-0 0.984 µM | A498 0.07 µM | CCRF-CEM 0.267 µM | MDA-MB-435 0.611 µM | MDA-N 0.857 µM | SW-620 0.244 µM | U-251 0.268 µM

Oc1ccc(-c2c3c(nc4c2CCc2ccc(Br)cc2-4)-c2cc(Br)ccc2CC3)cc1
inactive: 786-0 18.9 µM | A498 23.4 µM | A549 19.8 µM | DU-145 25.1 µM | HCC 2998 20.7 µM | HOP-92 16 µM | MDA-MB-435 20 µM | MDA-N 18.6 µM | Malme-3M 25.8 µM | NCI-H460 22.5 µM | PC-3 17.9 µM | SF-295 16.2 µM | SNB-75 23.9 µM | U-251 17.5 µM | UO-31 18.7 µM

O=[N+]([O-])c1ccc(NS(=O)(=O)C(F)(F)F)cc1
inactive: 786-0 > 100 µM | A498 > 100 µM | A549 > 100 µM | CCRF-CEM 92.9 µM | DU-145 > 100 µM | HOP-92 36.6 µM | MDA-MB-435 > 100 µM | MDA-N > 100 µM | MOLT-4 > 100 µM | NCI-H460 > 100 µM | PC-3 > 100 µM | SF-295 > 100 µM | SF-539 > 100 µM | SNB-75 > 100 µM | SW-620 > 100 µM | U-251 > 100 µM | UO-31 > 100 µM

CSc1ncc2c(n1)-c1ccccc1OC2
inactive: 786-0 72.6 µM | A498 13.3 µM | A549 52.2 µM | CCRF-CEM 59.2 µM | DU-145 39.4 µM | HOP-92 25.6 µM | MDA-MB-435 56.4 µM | MDA-N 57.1 µM | MOLT-4 50 µM | NCI-H460 42.9 µM | PC-3 56.4 µM | SF-295 94.2 µM | SF-539 37.7 µM | SNB-75 43.6 µM | SW-620 62.2 µM | U-251 51.3 µM | UO-31 38.8 µM

O=P1(N(CCCl)CCCl)Oc2ccc(Cl)cc2C(C(Cl)(Cl)Cl)c2cc(Cl)ccc2O1 (stereo not drawn)
inactive: 786-0 12.4 µM | A498 24.9 µM | A549 5.4 µM | CCRF-CEM 5.37 µM | DU-145 29.1 µM | HCC 2998 10.9 µM | HOP-92 3.9 µM | MDA-MB-435 18.5 µM | MDA-N 16.2 µM | MOLT-4 3.24 µM | NCI-H460 8.28 µM | PC-3 4.38 µM | SF-295 3.68 µM | SF-539 14.8 µM | SNB-75 10.9 µM | SW-620 11.2 µM | U-251 13.7 µM | UO-31 10.9 µM

Cc1nc(C)c(C(=O)NNC(=O)Cc2ccccc2)cc1C(=O)NNC(=O)Cc1ccccc1
inactive: 786-0 > 100 µM | A498 > 100 µM | A549 > 100 µM | CCRF-CEM > 100 µM | DU-145 > 100 µM | HCC 2998 > 100 µM | HOP-92 > 100 µM | MDA-MB-435 > 100 µM | MDA-N > 100 µM | MOLT-4 > 100 µM | NCI-H460 > 100 µM | PC-3 > 100 µM | SF-295 > 100 µM | SF-539 > 100 µM | SNB-75 94 µM | SW-620 > 100 µM | U-251 > 100 µM | UO-31 > 100 µM

CCn1c2ccccc2c2cc(/N=N\c3ccc(C#N)cc3)ccc21
inactive: 786-0 29 µM | A498 25.8 µM | A549 26.9 µM | CCRF-CEM > 100 µM | DU-145 62.7 µM | HOP-92 25.3 µM | MDA-MB-435 > 100 µM | MDA-N 69.5 µM | MOLT-4 > 100 µM | Malme-3M 18.7 µM | NCI-H460 64.7 µM | PC-3 > 100 µM | SF-295 32.1 µM | SF-539 32.8 µM | SNB-75 30.4 µM | SW-620 > 100 µM | U-251 29.8 µM | UO-31 75.7 µM

Cc1nc(OCc2ccccc2)c2ncn(CCO)c2n1
inactive: 786-0 > 100 µM | A498 > 100 µM | A549 > 100 µM | CCRF-CEM > 100 µM | DU-145 > 100 µM | HOP-92 51.8 µM | MDA-MB-435 > 100 µM | MDA-N > 100 µM | MOLT-4 > 100 µM | NCI-H460 > 100 µM | PC-3 > 100 µM | SF-295 > 100 µM | SF-539 > 100 µM | SW-620 > 100 µM | U-251 > 100 µM | UO-31 > 100 µM

CCC(C)C(NC(=O)C1CCCN1C(=O)C(CC(C)C)NC(=O)C(CC(C)C)NC(=O)C(N)CC(C)C)C(=O)NC(C(=O)NCC(=O)NC(CC(N)=O)C(=O)NC(CC(C)C)C(=O)NC(CC(C)C)C(=O)NC(CC(C)C)C(N)=O)C(C)C (stereo not drawn) (H-LLLPIVGNLLL-NH2; configuration not given here)
inactive: 786-0 > 50 µM | A498 > 50 µM | A549 > 50 µM | CCRF-CEM > 50 µM | DU-145 > 50 µM | HOP-92 > 50 µM | MDA-MB-435 > 50 µM | MDA-N > 50 µM | MOLT-4 > 50 µM | Malme-3M > 50 µM | PC-3 > 50 µM | SF-295 > 50 µM | SF-539 > 50 µM | SW-620 > 50 µM | U-251 > 50 µM | UO-31 > 50 µM
